Measurements taken from publication PMC3136114 (2011).

Tested on: c-Myc duplex (18 bp, d(AGGGTGGGG)2:d(CCCCACCCT)2) (DNA, duplex) AGGGTGGGGAGGGTGGGG/CCCCACCCTCCCCACCCT
Test: UV absorption titration, Scatchard
Details: 137 mM Na+ (NaCl), 5.4 mM K+ (KCl), 1.3 mM Ca2+, 1 mM Mg2+; Hanks' buffer, pH 7.2, 20 °C; single type of site; per site

- K1: 0.8 ± 0.1 × 10^6 M^-1
Compound: O=C1NC(=O)c2c1c1c3ccccc3[nH]c1c1c2c2ccccc2n1[C@@H]1OC[C@H](O)[C@H](O)[C@H]1O
